This passage reports IC50, Solubility and MIC results from US5798379A, “UCS1025 compounds” (Kyowa Hakko Kogyo Co., Ltd., priority 1996, dated 1998).

In brackets after ≈: the same amount, converted by molar mass. A value given as a limit tells only on which side of the number the result lay.

The test system of data set [1] is human mammary carcinoma MCF-7. The data set is described as follows: Growth inhibition against human mammary carcinoma MCF-7 cells (MTT). It is filed as cell-based. Conditions: MCF7, 72 hours. As for the experimental part:
(§1) Growth inhibition against human mammary carcinoma MCF-7, human cystocarcinoma T24, human epidermoid carcinoma A431 and human renal carcinoma ACHN cells:
(§2) Respective cells were dispensed into a 96 well microtiter plate (Nunc #167008) in 1×10^3 cells/well portions in the case of MCF-7 and T24 or in 1.5×lO^3 cells/well portions in the case of A431 and ACHN and cultured at 37° C. for 24 hours in a 5% carbon dioxide incubator. Thereafter, 30 mM of UCS1025A and 30 mM of UCS1025B were each serially diluted and added to the wells in 50 μl portions. The final concentration of each solution becomes 100 μM at the maximum at this stage. They were cultured again at 37° C. for 72 hours in the 5% carbon dioxide incubator. Five hours prior to the completion of the culturing, MTT [3-(4,5-dimethylthiazo-2-yl)-2,5-diphenyltetrazolium bromide, Sigma] which had been dissolved in the culture to a final concentration of 1 mg/ml was dispensed into the plate in 50 μl/well portions. After completion of the culturing, DMSO was dispensed in 150 μl/well portions, and the resulting plate was stirred vigorously using a plate mixer to dissolve MTT-formazan crystals completely. Thereafter, absorbance at 550 nm was measured using a microplate spectrophotometer M-SPmax250 (manufactured by Wako Pure Chemical Industries). The cell growth inhibition activity was shown by the 50% inhibitory concentration IC50

Data set [2] deals with human epidermoid carcinoma A431. The data set is described as follows: Growth inhibition against human epidermoid carcinoma A431 cells (MTT). The class given is cell-based. The note with it: A-431, 72 hours. As to the method: as §1, §2
For data set [3], the system named is human renal carcinoma ACHN. Briefly: Growth inhibition against human renal carcinoma ACHN cells (MTT). It is filed as cell-based. The note with it: 72 hours. As to the method: as §1, §2
A short description of a further data set: Solubility. It is filed as physicochemical.
Data set [4] concerns Enterococcus hirae ATCC 10541. Briefly: Antibacterial activity by agar dilution method. It is filed as cell-based. Conditions: ATCC10541, pH 7, read-out: Minimum inhibitory concentration. As to the method: (§3) Antibacterial activity of UCS1025A and UCS1025B against various bacteria were measured.
(§4) The antibacterial activity was measured by an agar dilution method on media (pH 7) -composed of 3 g/L of Bacto-tryptone (manufactured by Difco), 3 g/L of meat extract, 1 g/L of yeast extract, 1 g/L of glucose and 16 g/L of agar. The antibacterial activity was shown by minimum inhibitory concentration (MIC).
In general terms: Agar dilution tests growth on a series of plates holding different concentrations.

For data set [5], the system named is Bacillus subtilis No. 10707. The data set is described as follows: Antibacterial activity by agar dilution method. It is filed as cell-based. The note with it: pH 7, read-out: Minimum inhibitory concentration. As to the method:
as §3, §4

The test system of data set [6] is Staphylococcus aureus ATCC 6538P. The data set is described as follows: Antibacterial activity by agar dilution method. The class given is cell-based. Conditions: ATCC6538P, pH 7, read-out: Minimum inhibitory concentration. As to the method:
as §3, §4

Data set [7] concerns Proteus vulgaris ATCC 6897. The data set is described as follows: Antibacterial activity by agar dilution method. The class given is cell-based. Conditions: ATCC6897, pH 7, read-out: Minimum inhibitory concentration. As to the method: as §3, §4
The next data set relates to human cystocarcinoma T24. The data set is described as follows: Growth inhibition against human cystocarcinoma T24 cells (MTT). It is filed as cell-based. Conditions: T-24, 72 hours. As for the experimental part: as §1, §2
Setting [8] is: in methanol, ethyl acetate, chloroform, dimethylsulfoxide (DMSO).

One may read the IC50 as the concentration at which inhibition is half-maximal. A lower IC50 goes with greater potency in that assay. Turning to `CC1C=CC2CCCCC2C1C(=O)C1C(=O)N2CCC3C(=O)OC1C32O` (centres unmarked) [UCS1025A], the IC50 worked out at 21 µM in [1], 55 µM in data set [2], 58 µM in data set [3] and 51 µM in the data set with human cystocarcinoma T24. Besides, the Solubility result is given as “hardly soluble” in “Solubility” (in hexane) and “Soluble” in the data set “Solubility” (setting [8]). The MIC in [4] amounted to 1.3 µg/mL (≈ 3.62 µM); in data set [5], 1.3 µg/mL (≈ 3.62 µM); in data set [6], 1.3 µg/mL (≈ 3.62 µM); in data set [7] it was 5.2 µg/mL (≈ 14.5 µM).

In the case of `CC1C=CC2CCCCC2C1C(=O)C1(O)C(=O)N2CCC3C(=O)OC1C32O` (centres unmarked) [UCS1025B], the IC50 (in [1]; in data set [2]; in data set [3]; in the data set on human cystocarcinoma T24) was above 100 µM each time. Further, the Solubility result is “hardly soluble” in the data set “Solubility” (in hexane) and “Soluble” in the data set “Solubility” (setting [8]). Also, the MIC in data set [4] came to 42 µg/mL (≈ 112 µM); in data set [5] it was 83 µg/mL (≈ 221 µM); in data set [6] it was 42 µg/mL (≈ 112 µM); in [7], 83 µg/mL (≈ 221 µM).
